Experimental data published in patent publication US20250241895A1 (GH RESEARCH IRELAND LIMITED, priority 2022, published 2025).

System: patients with postpartum depression (PPD)
Assay: Clinical trial of inhaled 5-MeO-DMT in postpartum depression
Conditions: for BIMF functional domain Adjustment score / BIMF functional domain Infant Care score: maximum possible 12; for BIMF functional domain Mother-Child Interaction score / BIMF functional domain Self Care score / BIMF functional domain Social Support score: maximum possible 18; for BIMF functional domain Management score: maximum possible 36; for BIMF functional domain Psychological Well-being score: maximum possible 60
Protocol: The single-arm, open-label clinical trial will involve 15 adult female patients with clinically diagnosed postpartum depression (PPD).
The second dose (12 mg) will only be administered if: • a. […] The 6 mg dose was safe and well-tolerated according to the investigator, • c. Any psychoactive effects (PsE) of the prior dose have subsided, and • d. Pre-dose vital parameters and forced expiratory volume in one second (FEV1) are in normal range, or if outside of the normal range, are not clinically significant according to the investigator. • 3. Similarly, a third dose (18 mg) will only be administered if: • a. […] The 12 mg dose was safe and well-tolerated according to the investigator, and • c. Any PsE of the prior dose have subsided, and • d. Pre-dose vital parameters and forced expiratory volume in one second (FEV1) are in normal range, or if outside of the normal range, are not clinically significant according to the investigator.
The patients will be assessed for a peak psychedelic experience (based on a patient-scored visual analogue scale, the PE scale), sedation, and other endpoints after dosing. Follow-up visits are planned for Day 1, and Day 7 after the dosing day.
The following criteria must be met by all patients considered for clinical trial participation: • 1. Is female and in the age range between 18 and 45 years (inclusive) at screening. • 2. Has a body mass index (BMI) in the range of 18.5 and 35 kg/m^2 (inclusive) at screening. • 3. Meets the trial criteria for PPD as assessed by a trial psychiatrist or registered psychologist: • a. Diagnosis of Major Depressive Disorder without psychotic features, confirmed by the Mini-International Neuropsychiatric Interview (MINI), with peri-partum onset that began no earlier than gestation and no later than the first 4 weeks postpartum. • b. Has a Montgomery-Åsberg Depression Rating Scale (MADRS) total score of equal to or greater than 28 at screening and pre-dose on Day 0. • 6. […] Patients must have a negative pregnancy test at screening and on the pre-test day (Day −1). • 5. Is willing to delay start of other antidepressant or anxiety medication until after the end of the trial at Day 7 and agrees to keep any psychotherapy unchanged during the trial.
A potential patient who meets any of the following key exclusion criteria will be excluded from participation in this trial: • 1. Has, based on history, psychiatric assessment, and evaluation of the MINI, a current or prior diagnosis of bipolar disorder, a manic or hypomanic episode, a psychotic disorder, Major Depressive Disorder (MDD) or other mood disorder with psychotic features, obsessive compulsive disorder, post-traumatic stress disorder (PTSD), autism spectrum disorder, borderline personality disorder, schizophrenia, delusional disorder, paranoid personality disorder, schizoaffective disorder, clinically significant intellectual disability, or any other psychiatric comorbidity that renders the patient unsuitable for the trial according to the investigator's judgment. • 2. Has one or more first or second degree relatives with a current or previously diagnosed bipolar disorder, psychotic disorder or other mood disorder (including MDD) with psychotic features. • 3. Is in the judgement of a trial psychiatrist or registered psychologist, at significant risk for suicide based on history, psychiatric assessment, and evaluation of suicidal ideation and suicidal behaviour based on the Columbia-Suicide Severity Rating Scale (C-SSRS). • 4. Has taken anti-depressive medication within 14 days or 5 half-lives (whichever is longer) prior to dosing (exception: within the last 5 weeks in the case of fluoxetine). • 5.

[1] = PPD patient n=1, 6 mg then 12 mg
[2] = PPD patient n=1, 6 mg then 12 mg, 2 hr
[3] = PPD patient n=1, 6 mg then 12 mg, Day 1
[4] = PPD patient n=1, 6 mg then 12 mg, Day 7
[5] = PPD patient n=1, 6 mg then 12 mg, discharge
[6] = PPD patient n=1, Day 7 vs Day 0

## COc1ccc2[nH]cc(CCN(C)C)c2c1 [5-MeO-DMT]
PPD patient n=1
  tolerability of the inhalation procedure: well tolerated with no inhalation-related adverse events
[1]
  MADRS remission criteria (MADRS total score equal or less than 10): fulfilled
  MADRS response criteria (at least 50% improvement from baseline): fulfilled
  time to clinical remission after administration: ≤ 2 h
PPD patient n=1, 6 mg then 12 mg given on one day
  durability of clinical response: sustained over the 7-day follow-up period
[2]
  Total MADRS improvement: 24
  Total MADRS score: 5
[3]
  BPRS Tension improvement: 5
  Total MADRS improvement: 29
  Total MADRS score: 0
[4]
  BIMF item 1: I am a good mother: 6
  BIMF item 2: I feel rested: 2
  BIMF item 3: I am comfortable with the way I've chosen to feed my baby (either bottle or breast, or both): 6
  BIMF item 4: My baby and I understand each other: 5
  BIMF item 5: I am able to relax and enjoy time with my baby: 6
  BIMF item 6: There are people in my life that I can trust to care for my baby when I need a break: 6
  BIMF item 8: I am getting enough adult interaction: 6
  BIMF item 9: I am getting enough encouragement from other people: 6
  BIMF item 10: I trust my own feelings (instincts) when it comes to taking care of my baby: 6
  BIMF item 11: I take a little time each week to do something for myself: 6
  BIMF item 12: I am taking good care of my baby's physical needs (feedings, changing diapers, doctor's appointments): 6
  BIMF item 13: I am taking good care of my physical needs (eating, showering, etc): 5
  BIMF item 14: I make good decisions about my baby's health and well being: 6
  BIMF item 15: My baby and I are getting into a routine: 6
  BIMF item 16: I worry about how other people judge me (as a mother): 5
  BIMF item 17: I am able to take care of my baby and my other responsibilities: 5
  BIMF item 18: Anxiety or worry often interferes with my mothering ability: 5
  BIMF item 20: I am satisfied with the job I am doing as a new mother: 5
  Total MADRS improvement: 28
  Total MADRS score: 1
  BIMF functional domain Adjustment score: 6
  BIMF functional domain Infant Care score: 12
  BIMF functional domain Mother-Child Interaction score: 17
  BIMF functional domain Self Care score: 13
  BIMF functional domain Social Support score: 18
  BIMF functional domain Management score: 33
  BIMF functional domain Psychological Well-being score: 53
[5]
  BPRS Blunted Affect score: 1
  BPRS Conceptual disorganization score: 1
  BPRS Disorientation score: 1
  BPRS Grandiosity score: 1
  BPRS Hallucinatory behaviour score: 1
  BPRS Hostility score: 1
  BPRS Mannerisms and Posturing score: 1
  BPRS Motor retardation score: 1
  BPRS Suspiciousness score: 1
  BPRS Tension improvement: 5
  BPRS Uncooperativeness score: 1
  BPRS Unusual Thought Content score: 1
PPD patient n=1, Day 0
  BIMF item 1: I am a good mother: 6
  BIMF item 2: I feel rested: 0
  BIMF item 3: I am comfortable with the way I've chosen to feed my baby (either bottle or breast, or both): 6
  BIMF item 4: My baby and I understand each other: 5
  BIMF item 5: I am able to relax and enjoy time with my baby: 5
  BIMF item 6: There are people in my life that I can trust to care for my baby when I need a break: 6
  BIMF item 8: I am getting enough adult interaction: 6
  BIMF item 9: I am getting enough encouragement from other people: 5
  BIMF item 10: I trust my own feelings (instincts) when it comes to taking care of my baby: 5
  BIMF item 11: I take a little time each week to do something for myself: 5
  BIMF item 12: I am taking good care of my baby's physical needs (feedings, changing diapers, doctor's appointments): 6
  BIMF item 13: I am taking good care of my physical needs (eating, showering, etc): 4
  BIMF item 14: I make good decisions about my baby's health and well being: 6
  BIMF item 15: My baby and I are getting into a routine: 5
  BIMF item 16: I worry about how other people judge me (as a mother): 3
  BIMF item 17: I am able to take care of my baby and my other responsibilities: 5
  BIMF item 18: Anxiety or worry often interferes with my mothering ability: 2
  BIMF item 19: As time goes on, I am getting better at taking care of my baby: 0
  BIMF item 20: I am satisfied with the job I am doing as a new mother: 6
  reported adverse events (cramping left abdominal pain and headache): mild, short-lasting and resolved spontaneously
  BIMF functional domain Adjustment score: 5
  BIMF functional domain Infant Care score: 12
  BIMF functional domain Mother-Child Interaction score: 15
  BIMF functional domain Self Care score: 9
  BIMF functional domain Social Support score: 17
  BIMF functional domain Management score: 28
  BIMF functional domain Psychological Well-being score: 44
PPD patient n=1, Day 0, possible total 120
  BIMF TOTAL score: 92
PPD patient n=1, Day 7
  BIMF total score improvement, percent: 14%
[6]
  BIMF TOTAL score, Δ (Day 7): 13
  BIMF functional domain Adjustment, % Improvement: 20.00%
  BIMF functional domain Infant Care, % Improvement: 0.00%
  BIMF functional domain Management, % Improvement: 18%
  BIMF functional domain Self Care, % Improvement: 44%
PPD patient n=1, baseline
  BPRS Anxiety score: 7
  BPRS Depressive Mood score: 6
  BPRS Emotional Withdrawal score: 5
  BPRS Excitement score: 2
  BPRS Guilt Feelings score: 6
  BPRS Somatic Concern score: 6
  MADRS Apparent sadness score: 5
  MADRS Concentration Difficulties score: 0
  MADRS Inability to Feel score: 3
  MADRS Reduced Sleep score: 5
  MADRS Reduced appetite score: 0
  MADRS Reported sadness score: 4
  MADRS Suicidal Thoughts score: 0
  Total MADRS score: 29
PPD patient n=1, shortly after administration
  changes in vital parameters: temporary, clinically non-relevant increase in heart rate and blood pressure
PPD patient n=1, ECG 3 hours, laboratory 7 days, CADSS 3 hours, 1 day and 7 days
  ECG, safety laboratory analyses, CADSS: unremarkable
